Reference: ChEMBL document CHEMBL1629628, “Methicillin-resistant and -susceptible Staphylococcus aureus strains of clonal lineages ST398 and ST9 from swine carry the multidrug resistance gene cfr” (2009)
In brackets after ≈: the same amount, converted by molar mass.

Columns and labels:
Format in all cases: functional
Staphylococcus aureus [1] = experiment: Antimicrobial activity against methicillin-resistant Staphylococcus aureus ST398 expressing cfr, fexA, erm(A), tet(M) and mecA genes
Staphylococcus aureus [2] = experiment: Antimicrobial activity against methicillin-susceptible Staphylococcus aureus ST9 expressing cfr, fexA and erm(C) genes
Staphylococcus aureus [3] = experiment: Antimicrobial activity against Staphylococcus aureus RN4220
Staphylococcus aureus [4] = experiment: Antimicrobial activity against Staphylococcus aureus RN4220 transformed with Staphylococcus aureus ST398 plasmid pSCFS3 carrying cfr and fexA genes
Staphylococcus aureus [5] = experiment: Antimicrobial activity against Staphylococcus aureus RN4220 transformed with Staphylococcus aureus ST9 plasmid pSCFS3 carrying cfr and fexA genes

| SMILES | MIC (Staphylococcus aureus [1]) [µg/mL] | MIC (Staphylococcus aureus [2]) [µg/mL] | MIC (Staphylococcus aureus [3]) [µg/mL] | MIC (Staphylococcus aureus [4]) [µg/mL] | MIC (Staphylococcus aureus [5]) [µg/mL] |
| --- | --- | --- | --- | --- | --- |
| CC[C@H]1OC(=O)[C@H](C)[C@@H](O[C@H]2C[C@@](C)(OC)[C@@H](O)[C@H](C)O2)[C@H](C)[C@@H](O[C@@H]2O[C@H](C)C[C@H](N(C)C)[C@H]2O)[C@](C)(O)C[C@@H](C)C(=O)[C@H](C)[C@@H](O)[C@]1(C)O [ERYTHROMYCIN] | ≥ 64 | ≥ 64 | 0.25 (≈ 0.341 µM) | 0.25 (≈ 0.341 µM) | 0.25 (≈ 0.341 µM) |
| CS(=O)(=O)c1ccc([C@@H](O)[C@@H](CF)NC(=O)C(Cl)Cl)cc1 [FLORFENICOL] | ≥ 128 | ≥ 128 | 2 (≈ 5.58 µM) | 128 (≈ 357 µM) | 128 (≈ 357 µM) |
| Cc1onc(-c2ccccc2)c1C(=O)N[C@@H]1C(=O)N2[C@@H]1SC(C)(C)[C@@H]2C(=O)O [OXACILLIN] | ≥ 32 | 0.06 (≈ 0.149 µM) | 0.06 (≈ 0.149 µM) | 0.06 (≈ 0.149 µM) | 0.06 (≈ 0.149 µM) |
| C=C[C@]1(C)C[C@@H](OC(=O)CSCCN(CC)CC)[C@]2(C)[C@H](C)CC[C@]3(CCC(=O)[C@H]32)[C@@H](C)[C@@H]1O [TIAMULIN] | ≥ 128 | ≥ 128 | 0.063 (≈ 0.128 µM) | ≥ 128 | ≥ 128 |
| CCC[C@@H]1C[C@@H](C(=O)N[C@@H]([C@H]2O[C@H](SC)[C@H](O)[C@@H](O)[C@H]2O)[C@H](C)Cl)N(C)C1 [CLINDAMYCIN] | ≥ 64 | ≥ 64 | 0.125 (≈ 0.294 µM) | ≥ 64 | ≥ 64 |
| CC(=O)NC[C@H]1CN(c2ccc(N3CCOCC3)c(F)c2)C(=O)O1 [LINEZOLID] | – | 8 (≈ 23.7 µM) | 0.5 (≈ 1.48 µM) | – | – |
| CN(C)[C@@H]1C(O)=C(C(N)=O)C(=O)[C@@]2(O)C(O)=C3C(=O)c4c(O)cccc4[C@@](C)(O)[C@H]3C[C@@H]12 [TETRACYCLINE] | 64 (≈ 144 µM) | 0.12 (≈ 0.27 µM) | 0.25 (≈ 0.563 µM) | 0.25 (≈ 0.563 µM) | 0.25 (≈ 0.563 µM) |
| O=C(N[C@H](CO)[C@H](O)c1ccc([N+](=O)[O-])cc1)C(Cl)Cl [CHLORAMPHENICOL] | ≥ 128 | ≥ 128 | 4 (≈ 12.4 µM) | ≥ 128 | ≥ 128 |
| CC1=C\[C@@H](O)CC(=O)Cc2nc(co2)C(=O)N2CCC=C2C(=O)O[C@H](C(C)C)[C@H](C)/C=C/C(=O)NC\C=C\1 [VIRGINIAMYCIN FACTOR M1] | 128 (≈ 244 µM) | 128 (≈ 244 µM) | 4 (≈ 7.61 µM) | 128 (≈ 244 µM) | 128 (≈ 244 µM) |
